# Source: patent US11390661B2, “HCMV entry inhibitors” (priority 2016, dated 2022)
# Experiments:
# [1] = system: TB40-BACKL7-UL32EGFP-UL100mCherry; test: Adsorption and penetration of dual fluorescent HCMV particles on HECs; assay type: cell-based, Human cytomegalovirus; details: 100 ng/ml
# Procedure: To distinguish between adsorption and penetration of viral particles the inventors made use of dual fluorescent HCMV TB40-BACKL7-UL32EGFP-UL100mCherry (Sampaio 2013). HFFs and HECs were seeded at a density of 40,000 cells per well on gelatin-coated MIDI plates. Overnight produced cell-free infectious supernatant of the fluorescent virus was pre-incubated with PDGFR-Fcs for 2 h at 37° C. Before addition of the mixture the cells were pre-incubated with MEM for 30 min. […] After fixation with acetone, the EGFP signal of pUL32-EGFP was enhanced using mouse-anti-GFP (clone 3E6, Invitrogen) and Alexa488-anti-mouse (Life Technologies). DAPI (4′,6-diamidino-2-phenylindole) was added to mark the cell nuclei. The number of mCherry and EGFP positive particles which are enveloped was compared to the number of particles which were only green per cell. These […] particles have lost their UL100mCherry containing envelope, presumably by fusion with cellular membranes.
# To further investigate, which of the initial steps of infection are blocked, the inventors performed a series of experiments that allowed discriminating between adsorption and penetration. They used the dual fluorescent virus TB40-BACKL7-UL32EGFP-UL100mCherry (Sampaio 2013) as it allows to discriminate between enveloped (EGFP-positive and mCherry positive) and non-enveloped particles (only EGFP positive). […]
# [2] = system: HCMV strain TB40/E; test: Inhibition of infection of endothelial cells (HECs), IE antigen immunofluorescence; assay type: cell-based, Human cytomegalovirus
# Procedure: For testing the inhibitory effect of antivirals or fusion proteins on HCMV, the respective inhibitors were diluted in MEM and mixed with infectious supernatants, the mixtures were incubated for 2 h at 37° C. before addition to the cells. For fibroblast infection the virus-inhibitor mixture was incubated on the cells for about 24 h. If endothelial cells were included in the experiment, all cells were supplied with their respective maintenance media after 2 h, and further incubated for 22 h.
# Infection efficiencies were determined by immunofluorescence staining for viral proteins. For fixation and permeabilization the cells were incubated with 80% acetone for 5 min. For HCMV infected cells the immediate early proteins pUL122/123 were detected with a mouse monoclonal (clone E13, Argene) and visualized using a Cy3 conjugated goat anti-mouse secondary antibody (Jackson Immuno Research). HSV infected cultures were stained 6 h post infection for ICP0 using a mouse monoclonal (clone 11060, Santa Cruz) and goat anti-mouse AF488 (life technologies). DAPI was used to locate nuclei. Infection rates were determined by counting the number of cell nuclei positive for the respective viral protein, as well as the total number of nuclei per image. For each condition three images were evaluated. […]
# [3] = system: HCMV TB40E; test: Post adsorption inhibition on HFFs with or without PEG fusion; assay type: cell-based, Human cytomegalovirus
# Procedure: For the analysis of post adsorption inhibition, HFFs were seeded at a density of 40,000 per well on IBIDI plates and incubated for 1 day before infection. Infectious supernatants of TB40E which were produced within 24 hours were cleared by centrifugation. Two identical plates were treated as follows: Cells and virus dilutions were precooled on ice for 15 min before attachment of the virus was allowed on ice for 1 h. The virus containing medium was exchanged by pre-cooled MEM with or without 200 ng/ml PDGFR-alpha-Fc. After 2 h incubation of the inhibitor with the cells on ice, one plate was directly shifted to 37° C., whereas the other cells were treated with pre-warmed 50% PEG (Roche) for 30 sec. The PEG was washed off by five times washing with pre-warmed PBS. Supplied with pre-warmed MEM containing again 200 ng/ml PDGFR-alpha-Fc, the cells were then incubated at 37° C. After 2 h incubation the medium was exchanged on PEG-treated and untreated cells and infection was allowed to proceed for 24 h before infection efficiencies were assessed by immediate early staining. Efficient PEG fusion was controlled visually by detection of syncytia.
# HCMV virus particles were adsorbed to HFFs for 1 h on ice. The virus containing medium was then exchanged by medium containing PDGFR-alpha-Fc at a concentration of 200 ng/ml. […]
# [4] = system: HSV-1 strain F; test: Inhibition of HSV infection (specificity control); assay type: cell-based; details: data not shown
# Procedure: (§1) Infection efficiencies were determined by immunofluorescence staining for viral proteins. For fixation and permeabilization the cells were incubated with 80% acetone for 5 min. For HCMV infected cells the immediate early proteins pUL122/123 were detected with a mouse monoclonal (clone E13, Argene) and visualized using a Cy3 conjugated goat anti-mouse secondary antibody (Jackson Immuno Research). HSV infected cultures were stained 6 h post infection for ICP0 using a mouse monoclonal (clone 11060, Santa Cruz) and goat anti-mouse AF488 (life technologies). DAPI was used to locate nuclei. Infection rates were determined by counting the number of cell nuclei positive for the respective viral protein, as well as the total number of nuclei per image. For each condition three images were evaluated.
# [5] = system: HCMV strains AD169, Towne, Merlin, VR1814, VHL/E, TB40/F; test: Inhibition of HFF infection by other HCMV strains; assay type: cell-based, Human cytomegalovirus; details: 250 ng/ml, HFFs
# Procedure: as §1
# Next, it was tested whether soluble PDGFR-alpha-Fc would inhibit not only strain TB40/E but also other strains of HCMV. […] After an overnight incubation, the fraction of infected cells was determined by immunofluorescence staining of viral immediate early antigen. […]
substance,measurement,setting,value
"PDGFR-alpha-Fc: recombinant Fc-fusion protein of the PDGFR-alpha extracellular domain, obtained from R&D (6765-PR-050)",effect on penetration of HECs,[1],affected only in fibroblasts
same,reduction of adsorption on HECs,[1],75%
same,extent of reduction of infection of HECs,[2],incomplete
same,EC50 of inhibition of infection of HECs,[2]; virus pre-incubated 2 h,0.02 to 0.05 µg/mL
same,infectivity of already adsorbed viruses (reduced to),"[3]; 200 ng/ml added post adsorption, HFFs",50%
same,post adsorption inhibition after addition of PEG,"[3]; 200 ng/ml, 50% PEG 30 sec",completely rescued
same,effect on HSV infection,[4],not affected
same,"reduction of infection, strains other than VR1814",[5],complete
